According to patent publication US7553826B2, “Cytarabine monophosphate prodrugs” (Metabasis Therapeutics, Inc., priority 2002, dated 2009):
In brackets after ≈: the same amount, converted by molar mass. Several values for one entry are separate records, joined by “and”; a condition that tells them apart may be missing. Equal entries are not always repeated.

Columns and labels:
[1] = Single dose i.p. bolus liver levels / liver targeting in mice
Method: At specified times post injection, mice were anesthetized and exsanguinated via cardiac puncture. The whole liver was removed, and snap-frozen in liquid nitrogen, and homogenized using a Polytron homogenizer PT 10/35 (Brinkmann Instruments, Westbury, N.Y.) in 3 volumes of 10% (v/v) perchloric acid (PCA). After a 5 min centrifugation at 2,500×g, 1 mL of supernatant was neutralized using 0.3 mL 3 M KOH/3 M KHCO3 and mixed thoroughly. Samples were then centrifuged for 5 minutes and resulting supernatants were treated with periodate in order to remove endogenous ribonucleotides which otherwise might interfere with araCTP detection. […] Resulting samples were analyzed by HPLC as described below.
To measure bone marrow araCTP, the bone marrow samples were flushed from the marrow cavities of femurs with 1.2 ml saline into pre-weighed Eppendorf tubes. After centrifugation for 20-30 seconds (Eppendorf microfuge, 14,000 rpm) and removal of the supernatant, 12 volumes of 3% PCA (v/v) were added to the bone marrow cell pellets. Samples were then vortexed until the pellet was well dissolved and centrifuged as above for 10 min. Ninety μL of extracted supernatant was neutralized to pH 7-8 using 30 μL 1 M KOH/1 M KHCO3 and again centrifuged. Resulting supernatants were periodate-treated as above.
Samples (50 μL) were injected onto the column in 70% 10 mM ammonium phosphate buffer and 30% 1 M ammonium phosphate buffer, both at pH 3.5 and containing 6% ethanol. […] A standard curve was prepared by adding known amounts of araCTP into PCA extracts from control liver or bone marrow prior to neutralizing, and preparing HPLC samples accordingly.
To obtain plasma, blood was transferred to heparinized micro-collection tubes and centrifuged in an Eppendorf microfuge at 14,000 rpm for 2 minutes. Resulting plasma was collected, placed on dry ice, and subsequently stored at −20° C. On the day of analysis, proteins were precipitated by adding 1 mL acetonitrile to 100 μL of plasma. After 10 min centrifugation (Eppendorf microfuge, 14,000 rpm), the supernatant was removed and dried in a Savant SpeedVac Plus SC110A. Samples were reconstituted with 110 μL of mobile phase buffer (20 mM KH2PO4, pH 4.5), sonicated for 5 min, and centrifuged for 30 seconds. […] AraC and prodrugs were detected by absorbance at 280 nm and quantitated using standard curves obtained with spiked plasma samples processed as above.
Results are expressed as mean±standard error of the mean. Data were analyzed by repeated measures ANOVA, followed by the Tukey HSD post-hoc test for comparisons at individual time points when appropriate. A p-value of less than 0.05 was considered statistically significant. Dotted lines in figures indicate LOQ (limit of quantitation) using the indicated HPLC method.
In those studies, liver, plasma and bone marrow samples were obtained at necropsy to evaluate liver targeting.
Results are expressed as mean±standard error of the mean. When appropriate, AUC was calculated from time zero to the last time-point of the study. Liver targeting indices (LTIs) were calculated by dividing the liver araCTP AUC by the AUC for plasma araC (plasma LTI) or by the AUC for bone marrow araCTP (bone marrow LTI) for each compound. For the continuous infusion studies, the steady state araCTP levels were divided by the steady state plasma araC levels.

[2] = Single IP injection liver targeting in rat; format: in vivo; details: 100 mg CE/kg single IP injection
Solubility = format: physicochemical
Method: With each of the three buffer systems, saturating solutions of Compound A and Compound B were prepared as follows. […] The resultant vials were sealed and equilibrated by tumbling at 25° C. for a minimum of 24 h. At the end of the incubation period, prodrug that was not in solution was removed from the samples by filtration through a 0.45 μm pore size nylon syringe filter. These diluted samples were assayed by the HPLC method of example E.

SMILES: Nc1ccn([C@@H]2O[C@H](CO[P@@]3(=O)OCC[C@@H](c4ccncc4)O3)[C@@H](O)[C@@H]2O)c(=O)n1 [Compound A, 2(1H)-Pyrimidinone, 4-amino-1-[5-O-[(2R,4S)-2-oxido-4-(4-pyridinyl)-1,3,2-dioxaphosphorinan-2-yl]-β-D-arabinofuranosyl]]
- Liver araCTP Peak @ 1 hr ([1]; Mouse, 100 mg (cytarabine equivalents)/kg single IP injection): 96 nmol/g and 70 nmol/g
- LTI (Liver/plasma) ([1]; Mouse, 100 mg CE/kg single IP, liver araCTP AUC / plasma araC AUC): 27 nmol/g/μM and 19.5 nmol/g/μM
- reduction of peripheral exposure (liver targeting) ([1]; administered intraperitoneally): ~20 fold
- liver araCTP levels relative to Compound B ([1]; mice, bolus i.p. injection): ~2 fold
- plasma araC levels relative to Compound B ([1]; mice, bolus i.p. injection): ~2 fold
- liver araCTP peak at 60 minutes post injection ([1]; mice, single i.p. bolus, 100 mg/kg CE): 69.89 ± 6.37 nmol/g
- LTI (Liver/plasma) [2]: 19.2 nmol/g/μM
- Liver araCTP Peak @ 1 hr [2]: 267 nmol/g
- solubility (Solubility; 0.5 M Pi pH 8.0 buffer, 25° C): 2900 µg/mL (≈ 6.59 mM)
- solubility (Solubility; 0.5 M citrate pH 4.0, 25° C): 45800 µg/mL (≈ 104 mM)
- solubility (Solubility; 0.5 M citrate pH 7.0, 25° C): 2600 µg/mL (≈ 5.9 mM)
